In PubChem BioAssay (NCI) one finds GI50 and TGI data, which are given here for seven molecules.

Values joined by “and” are separate entries in the source; they are usually repeats but may differ in a detail not shown here. Equal values may be shown once.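 Briefly, cells in 96-well plates were exposed to five compound concentrations for 48 h, and endpoints were estimated by linear interpolation. Abbreviation: GI50, concentration required for 50% inhibition of growth. TGI is the concentration that stops growth completely.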

Common to all, as to assay: NCI-60 cell line screen, 48 h
In experiment [1] the test system is COLO 205 colon.
Experiment [2] relates to EKVX NSCLC.
Experiment [3] has as its system HOP-92 NSCLC.
The test system of experiment [4] is M14 melanoma.
For experiment [5], the system named is NCI-H23 lung.
Experiment [6] deals with NCI-H460 lung.
Experiment [7] deals with OVCAR-8 ovarian.
Experiment [8] has as its system SF-268 CNS.
The subject of experiment [9] is SK-MEL-5 melanoma.
Experiment [10] relates to U251 CNS.

With `O=C(Nc1cccc(Cl)c1)c1cc2ccccc2cc1O`, the GI50 is 19.1 µM and 13.6 µM in experiment [1]; 2.76 µM and 2.05 µM in [2]; 0.41 µM and 0.306 µM in experiment [3]; 3.67 µM and 2.24 µM in [4]; 1.76 µM and 1.03 µM in experiment [5]; 2.47 µM and 2.48 µM in experiment [6]. The GI50 in experiment [7] was 2.94 µM and 3.39 µM; in [8], 2.58 µM and 2.57 µM; in experiment [9], 1.24 µM and 0.661 µM; in experiment [10], 1.74 µM. For the same molecule, the TGI in [1] was > 100 µM and 79 µM; in [2], greater than 100 µM; in experiment [3] it was 3.66 µM and 0.973 µM; in experiment [4], greater than 100 µM; in [6], greater than 100 µM; in [7] it was greater than 100 µM. In addition, the TGI in [8] was greater than 100 µM; in [9] it was 4.15 µM and 2.5 µM; in experiment [10], 19.6 µM and 8.44 µM.

Turning to `O=C(O)c1c(-c2nccc3ccccc23)[nH]c(-c2ccccc2)c1S(=O)(=O)O`, the TGI in experiment [1], in [2], in experiment [3], in experiment [4], in experiment [5] and in [6] was greater than 100 µM throughout. The TGI in experiment [7], in experiment [8], in [9] and in experiment [10] was greater than 100 µM each time.

Turning to `O=C1c2ccn(CCCCNC(CO)(CO)CO)c2C(=O)c2c1c(O)c1ccccc1c2O`, the GI50 is 0.912 µM in [1]; 24.8 µM in [2]; 1.89 µM in experiment [3]; 1.86 µM in experiment [4]; 3.01 µM in [5]; 4.57 µM in experiment [6]. The GI50 in experiment [7] was 2.17 µM; in experiment [8], 3.41 µM; in [9] it was 5.21 µM; in [10], 1.95 µM. Moreover, the TGI was greater than 23.6 µM in experiment [1]; 74 µM in experiment [2]; 19.6 µM in experiment [3]; 3.59 µM in [4]; 7.78 µM in [5]; 13.8 µM in experiment [6]. The TGI in experiment [7] came out at 11.4 µM; in experiment [8] it was 18.1 µM; in experiment [9], 53.1 µM; in experiment [10], 4.67 µM.

`O=C(N/N=C\c1cc(Br)ccc1O)c1ccncc1`: the GI50 in experiment [1] is 1.23 µM; in experiment [2] it was 1.8 µM; in [3], 2.22 µM; in experiment [4], 2.45 µM; in experiment [5], 3.61 µM; in experiment [6] it was 1.25 µM. Also, the GI50 in [7] is 1.38 µM; in experiment [8], 1.4 µM; in experiment [9], 2.6 µM; in experiment [10], 1.92 µM. For the same molecule, the TGI was 16.8 µM in experiment [1]; 38.5 µM in [2]; 45.4 µM in [3]; 26 µM in [4]; greater than 100 µM in [5]; greater than 100 µM in experiment [6]. The TGI in [7] was greater than 100 µM; in [8], greater than 100 µM; in [9], 21.8 µM; in experiment [10], 68.8 µM.

Take `Nc1nc(Cl)cc(NCCO)n1`: the TGI in experiment [1], in experiment [2], in experiment [3], in experiment [4], in [5] and in [6] was greater than 100 µM in each case. The TGI in [7], in [8], in experiment [9] and in experiment [10] was greater than 100 µM throughout.

`COC(=O)/C=C/C1C(C(=O)OC)C2(C(=O)OC)CCC1(C(=O)OC)N2` (centres undefined): the TGI in [1], in [2], in experiment [3], in [4], in experiment [5] and in experiment [6] was greater than 100 µM in each case. In addition, the TGI in experiment [7], in [8], in experiment [9] and in experiment [10] was greater than 100 µM each time.

As to `CCN1C(=O)N(CC)C2C1NC(=S)N2/N=C/C=C/c1cccs1` (centres undefined), the GI50 in experiment [1] was 0.267 µM; in experiment [2], 0.464 µM; in [3] it was 13.4 µM; in experiment [4], 0.241 µM; in experiment [5], 0.658 µM; in experiment [6], 0.363 µM. Moreover, the GI50 was 0.548 µM in [7], 1.47 µM in experiment [8], 0.274 µM in experiment [9] and 0.342 µM in [10]. Also, the TGI was 1.17 µM in experiment [1]; greater than 100 µM in experiment [2]; greater than 100 µM in experiment [3]; 17.6 µM in experiment [4]; greater than 100 µM in experiment [5]; greater than 100 µM in experiment [6]. The TGI in experiment [7] is greater than 100 µM; in experiment [8] it was greater than 100 µM; in experiment [9], 5.93 µM; in [10] it was greater than 100 µM.
